This is an account of results in EPA's ToxRefDB 2.

Data set [1] deals with rat. As to conditions: Subchronic inhalation toxicity, fischer, Whole-Body, dose end: 14 week, group: systemic.
In data set [2] the test system is rat. Conditions: Prenatal developmental toxicity study, sprague dawley, Inhalation, Whole-Body, dose end: 15 GD, group: maternal.
The test system of data set [3] is rat. As to conditions: Prenatal developmental toxicity study, sprague dawley, Inhalation, Whole-Body, dose end: 15 GD, group: maternal. The source holds these as a separate data set.
The test system of data set [4] is rat. Conditions: Acute inhalation toxicity, fischer, Whole-Body, dose end: 2 week, group: systemic.
For data set [5], the system named is mouse. As to conditions: Carcinogenicity, b6c3f1, Oral, Feed, dose end: 2 year, group: systemic.
The subject of data set [6] is rat. Conditions: Multigenerational reproductive toxicity study, other, Oral, Gavage/Intubation, dose end: 2 generation.
Data set [7] has as its system rat. As to conditions: Combined chronic toxicity/carcinogenicity, fischer, Oral, Feed, dose end: 2 year, group: systemic.
For data set [8], the system named is mouse. Conditions: Subchronic oral toxicity in rodents, b6c3f1, Feed, dose end: 13 week, group: systemic.
Data set [9] concerns rat. Conditions: Multigenerational reproductive toxicity study, sprague dawley, Oral, Gavage/Intubation, dose end: 2 generation.
In data set [10] the test system is rat. As to conditions: Subchronic oral toxicity in rodents, fischer, Feed, dose end: 13 week.
Data set [11] deals with mouse. Conditions: Carcinogenicity; other; Oral; Water; dose end: 36 week; group: systemic; systemic / pathology microscopic / liver / adenoma + systemic / organ weight / liver / absolute + systemic / organ weight / liver / relative….
Data set [12] concerns rat. Conditions: Peri- and post-natal toxicity study (Segment III), sprague dawley, Oral, Gavage/Intubation, dose end: 54 PND.
The subject of data set [13] is rat. As to conditions: Developmental neurotoxicity study; sprague dawley; Oral; Feed; dose end: 48 PND; group: cannot be grouped; developmental / developmental landmark / eye opening / eye opening + reproductive / offspring survival early / litter size / litter size + ….
Data set [14] deals with rat. Conditions: Chronic toxicity, fischer, Oral, Feed, dose end: 104 week, group: systemic.
Data set [15] concerns rat. As to conditions: Developmental neurotoxicity study; sprague dawley; Oral; Gavage/Intubation; dose end: 125 PND; group: cannot be grouped; systemic / in life observation / body weight / offspring (pup) weight.
Data set [16] deals with mouse. As to conditions: Carcinogenicity; b6c3f1; Oral; Feed; dose end: 78 week; group: systemic; systemic / in life observation / body weight / body weight.
Setting [17] is: systemic / pathology microscopic / nose / hyperplasia + systemic / pathology microscopic / nose / hypertrophy + systemic / pathology ….
Setting [18] is: systemic / in life observation / body weight / body weight + systemic / in life observation / body weight / body weight gain + systemic / in….
Where [19] appears, read: systemic / in life observation / body weight / body weight gain.
Where [20] appears, read: systemic / in life observation / body weight / body weight + systemic / in life observation / clinical signs / body temperature + systemic….
The mark [21] stands for this setting: systemic / pathology microscopic / lung / bronchiolization.
Setting [22] is: group: offspring, developmental / offspring survival late / viability index / viability index + developmental / developmental landmark / anogenital distance (….
The mark [23] stands for this setting: group: parental, systemic / clinical chemistry / thyroxine (t4) / thyroxine (t4), total + systemic / organ weight / kidney / absolute + systemic / organ ….
Where [24] appears, read: group: parental, systemic / organ weight / liver / absolute + systemic / organ weight / liver / relative to body weight + systemic / organ weight / kidney / ….
Where [25] appears, read: systemic / pathology microscopic / kidney / hyaline droplet + systemic / pathology microscopic / kidney / pigmentation.
[26] abbreviates: systemic / organ weight / liver / relative to body weight.
Setting [27] is: group: offspring, systemic / in life observation / body weight / offspring (pup) weight + systemic / organ weight / brain / absolute + developmental / ….
The mark [28] stands for this setting: group: parental, systemic / in life observation / body weight / body weight + systemic / in life observation / clinical signs / drooping eyelids (ptosis) + ….
Where [29] appears, read: group: parental, systemic / in life observation / clinical signs / salivation + systemic / organ weight / kidney / relative to body weight + systemic / organ….
Setting [30] is: group: reproductive, reproductive / reproductive performance / gestational length / gestational length + reproductive / reproductive performance / implantations….
Setting [31] is: group: reproductive, reproductive / reproductive performance / implantations / implantations.
Where [32] appears, read: group: maternal, reproductive / reproductive performance / estrous cycle / abnormal.
[33] abbreviates: group: systemic, systemic / hematology / erythrocyte (rbc) count differential / erythrocyte (rbc) + systemic / hematology / hematocrit (hct) / hematocrit (….
Where [34] appears, read: group: systemic, systemic / pathology microscopic / kidney / nephropathy + systemic / pathology microscopic / spleen / congestion + systemic / pathology ….
Setting [35] is: group: developmental, developmental / developmental landmark / vaginal opening / vaginal opening + developmental / developmental landmark / preputial separation….
[36] abbreviates: group: parental, systemic / in life observation / clinical signs / ataxia + systemic / in life observation / clinical signs / prostration + systemic / organ ….
Setting [37] is: group: parental, systemic / organ weight / adrenal gland / absolute + systemic / organ weight / liver / absolute.
The mark [38] stands for this setting: systemic / organ weight / liver / relative to body weight + systemic / pathology gross / liver / discolored + systemic / pathology gross / ….

For the compound `CCN(CC)CCO` [N,N-Diethylethanolamine], the NEL in data set [1] (setting [17]) stood at 10 ppm; in [2] (setting [18]), 33 ppm; in data set [3] (setting [18]), 10 ppm; in data set [4] (setting [20]), 10 ppm. For the same compound, the NOAEL (in general, the highest tested level that showed no adverse finding) in data set [1] (setting [17]) was 10 ppm; in data set [2] (setting [18]), no less than 100 ppm; in [3] (setting [18]) it was no less than 200 ppm; in [4] (setting [20]), no less than 300 ppm. Further, the LOAEL (in general, the lowest dose or exposure tested at which an adverse effect was seen) is 25 ppm in [1] (systemic / pathology microscopic / nose / hyperplasia + systemic / pathology microscopic / nose / infiltration cellular), greater than 100 ppm in data set [2] (setting [18]), greater than 200 ppm in data set [3] (setting [18]) and greater than 300 ppm in [4] (setting [20]). The LEL in data set [1] (systemic / pathology microscopic / nose / hyperplasia + systemic / pathology microscopic / nose / infiltration cellular + systemic / …) turned out to be 25 ppm; in [2] (systemic / in life observation / body weight / body weight gain + systemic / in life observation / food consumption / food consumption) it was 66 ppm; in data set [3] (setting [19]), 50 ppm; in data set [4] (systemic / pathology microscopic / nose / infiltration cellular + systemic / pathology microscopic / nose / metaplasia) it was 55 ppm.
For `Cc1ccc([N+](=O)[O-])cc1` [4-Nitrotoluene], the LOAEL in data set [5] (systemic / in life observation / body weight / body weight) was 345 mg/kg/day; in data set [6] (setting [22]) it was 160 mg/kg/day; in data set [6] (setting [23]), greater than 160 mg/kg/day; in [7] (systemic / pathology microscopic / spleen / hematopoietic cell proliferation + systemic / pathology microscopic / spleen / pigmentation), 110 mg/kg/day; in [8] (setting [19]) it was 813 mg/kg/day; in [9] (setting [27]), greater than 160 mg/kg/day. The LOAEL was greater than 160 mg/kg/day in data set [9] (setting [28]), greater than 160 mg/kg/day in data set [9] (setting [30]), greater than 680 mg/kg/day in [10] (setting [32]) and 335 mg/kg/day in data set [10] (setting [33]). The NOAEL in data set [5] (systemic / in life observation / body weight / body weight + systemic / pathology microscopic / lung / adenoma/carcinoma combined + systemic…) was 170 mg/kg/day; in data set [6] (group: offspring, developmental / offspring survival late / viability index / viability index + systemic / organ weight / brain / absolute) it was 80 mg/kg/day; in data set [6] (setting [23]), no less than 160 mg/kg/day; in data set [7] (systemic / pathology microscopic / spleen / hematopoietic cell proliferation + systemic / pathology microscopic / spleen / pigmentation + …), 55 mg/kg/day; in [8] (systemic / in life observation / body weight / body weight gain + systemic / in life observation / food consumption / food consumption + …) it was 439 mg/kg/day; in data set [9] (setting [27]), no less than 160 mg/kg/day. The NOAEL in [9] (setting [28]) is no less than 160 mg/kg/day; in data set [9] (setting [30]), no less than 160 mg/kg/day; in [10] (setting [32]), no less than 680 mg/kg/day; in data set [10] (setting [33]) it was 164 mg/kg/day. Moreover, the LEL in data set [5] (setting [21]) amounted to 155 mg/kg/day; in data set [6] (group: offspring, systemic / organ weight / brain / absolute) it was 80 mg/kg/day; in data set [6] (setting [24]), 40 mg/kg/day; in [7] (setting [25]) it was 55 mg/kg/day; in data set [8] (setting [26]) it was 131 mg/kg/day; in data set [9] (group: offspring, systemic / in life observation / body weight / offspring (pup) weight + systemic / organ weight / brain / absolute), 80 mg/kg/day. Besides, the LEL came to 40 mg/kg/day in data set [9] (setting [29]), 40 mg/kg/day in data set [9] (setting [31]), 680 mg/kg/day in data set [10] (setting [32]) and 42 mg/kg/day in data set [10] (setting [34]). Further, the NEL was less than 155 mg/kg/day in [5] (setting [21]); 40 mg/kg/day in data set [6] (setting [22]); less than 40 mg/kg/day in data set [6] (setting [24]); less than 55 mg/kg/day in data set [7] (setting [25]); less than 131 mg/kg/day in data set [8] (setting [26]); 40 mg/kg/day in [9] (group: offspring, systemic / in life observation / body weight / offspring (pup) weight + developmental / offspring survival late / viability index / …). Also, the NEL in data set [9] (setting [29]) is less than 40 mg/kg/day; in data set [9] (setting [31]) it was less than 40 mg/kg/day; in data set [10] (setting [32]), 335 mg/kg/day; in [10] (setting [34]), less than 42 mg/kg/day.
Regarding `CCC1(c2ccccc2)C(=O)NC(=O)NC1=O` [Phenobarbital], the LEL stood at 75 mg/kg/day in data set [11]; 100 mg/kg/day in data set [12] (setting [35]); 25 mg/kg/day in data set [12] (setting [37]); 37.5 mg/kg/day in data set [13]; 4.6 mg/kg/day in data set [14] (systemic / organ weight / liver / relative to body weight + systemic / pathology gross / liver / mass + systemic / pathology microscopic / …); 40 mg/kg/day in data set [15]. Also, the LOAEL in data set [11] is greater than 75 mg/kg/day; in data set [12] (setting [35]), greater than 100 mg/kg/day; in data set [12] (setting [36]) it was greater than 100 mg/kg/day; in [13], greater than 37.5 mg/kg/day; in data set [14] (setting [38]) it was greater than 19 mg/kg/day; in data set [15], greater than 80 mg/kg/day. In addition, the NEL in data set [11] is less than 75 mg/kg/day; in [12] (group: developmental, developmental / developmental landmark / vaginal opening / vaginal opening), 50 mg/kg/day; in data set [12] (setting [37]), less than 25 mg/kg/day; in [13], less than 37.5 mg/kg/day; in data set [14] (setting [38]), 1.1 mg/kg/day; in data set [15], less than 40 mg/kg/day. Besides, the NOAEL in [11] is no less than 75 mg/kg/day; in [12] (setting [35]), no less than 100 mg/kg/day; in [12] (setting [36]), no less than 100 mg/kg/day; in [13], no less than 37.5 mg/kg/day; in data set [14] (setting [38]), no less than 19 mg/kg/day; in [15], no less than 80 mg/kg/day.
In data set [16], `N[C@@H](Cc1c[nH]c2ccccc12)C(=O)O` [l-Tryptophan] yielded an LEL of 3750 mg/kg/day, an LOAEL of 3750 mg/kg/day, an NEL of less than 3750 mg/kg/day and an NOAEL of less than 3750 mg/kg/day.
